# Test results: patent US20060057104A1, “Methods for stimulating tlr irf3 pathways for inducing anti-microbial, anti-inflammatory and anticancer responses” (THE Regents of the University of California Office of the …, priority 2002, published 2006)
# Test system: STAT1
# Details: lipid A 1 ng/ml, poly I:C 1 μg/ml
# Description: BMMs from both wild-type and IFNAR−/− mice were stimulated with lipid A (1 ng/ml), poly I:C (1 μg/ml), CpG (100 nM), or fresh medium (M) for the indicated time periods, as described in Example 2, infra.
# (A): Cell lysates were subjected to western blotting analyses to detect phosphorylated STAT1 (P-STAT1) and total STAT1.
# For STAT1 immunoblotting, cells were lysed in modified RIPA buffer and 20 μg of protein were loaded per lane and separated by SDS-PAGE. Gels were transferred to nitrocellulose filters and immunoblotted using the antibody manufacturers' recommended instructions. Antibodies specific to the STAT1 or the phosphorylated forms of STAT1 were obtained from Cell Signaling Technologies and Santa Cruz Biotechnologies, respectively. The anti-MyD88 antibody was purchased from ProSci Incorporated. For detection of MHV68, equal amounts were loaded in each lane and analyzed by western blotting techniques using rabbit anti-M9. Blots were stripped and re-probed with anti-actin (Sigma) to verify equal loading.
# To address this issue we stimulated IFNAR^−/− BMMs with lipid A and poly I:C and assayed for STAT1 phosphorylation.
row,Substance,STAT1 activation in IFNAR−/− macrophage cells
1,lipid A,abolished
2,poly I:C,abolished
